Assay results reported in patent US9029593B2, “Method for manufacturing spilanthol and intermediate manufacturing product therefor” (Takasago International Corporation, priority 2009, dated 2015).
“Also recorded” adds a separate entry of the source.

Assays:
[1] = Thermal stability evaluation of crude product at 180° C. (GC, hexadecane internal standard); format: physicochemical; conditions: crude product before distillation, stirring at 180° C. in a stream of nitrogen, after 3 hours, GC area ratio vs hexadecane
Description: The crude product of N-isobutyl-2,6,8-decatrienamide obtained in Example 2 before the distillation and the crude product obtained in Comparative Example 1 were compared as follows in terms of thermal stability at 180° C. assuming distillation at high temperature.
In a stream of nitrogen, 1 g of each of the crude products was put into a flask together with 0.1 g of hexadecane as an internal standard substance, followed by stirring at 180° C. for […]. By gas chromatography, the area ratio of N-isobutyl-2,6,8-decatrienamide was compared with the area ratio of the internal standard substance to measure the remaining percentage of N-isobutyl-2,6,8-decatrienamide.

[2] = Sensory evaluation of aqueous solutions containing 10 ppm of N-isobutyl-2,6,8-decatrienamide; format: in vivo; conditions: aqueous solution containing 10 ppm
Description: The sensory evaluation was performed using aqueous solutions respectively containing 10 ppm of N-isobutyl-2,6,8-decatrienamide obtained in Example 2 and Comparative Example 1.

remaining percentage of N-isobutyl-2,6,8-decatrienamide [1] [%]	SMILES	Sensory evaluation (numbing and astringent actions) [2]
98	CC=CC=CCC/C=C/C(=O)NCC(C)C (racemic) [Example 2, N-isobutyl-2,6,8-decatrienamide]	excellent numbing and astringent actions; also recorded: clear and strong
89	CC=CC=CCCC=CC(=O)NCC(C)C [Comparative Example 1, N-isobutyl-2,6,8-decatrienamide, reference compound]	
